Columns and labels:
S. aureus (33186) = assay: Bactericidal (MBC) experiment, LB plates; type: cell-based; conditions: 5 μM, overnight culture then LB plate 16 hours
Method: (§1) Cultures (5 mL) starting at 0.001 OD were grown overnight at 37° C. with different concentrations of […], and then a sample of culture was added to an LB plate and then it was incubated for 16 hours at 37° C. […] All experiments were done in triplicate, including control.

E. coli (MC4100) [1] = assay: Bactericidal (MBC) experiment, LB plates; type: cell-based; conditions: overnight culture then LB plate 16 hours
Method: as §1

E. feucalis (29213) = assay: Bactericidal (MBC) experiment, LB plates; type: cell-based; conditions: overnight culture then LB plate 16 hours
Method: as §1

[2] = system: Enterococcus faecalis 29213; assay: MIC in LB culture; type: cell-based
Method: Strep fuecalis (aka Enterococcus faecalis 29213) cultures were prepared the same way as S. aureus, and analyzed as above. […] The OD600 of the control was 0.72. […] See photos for visual representation. See FIG. 11D for a visual image of the S. fuecalis cultures.

Water solubility = type: physicochemical; conditions: TFA counterions
Source text: Route 1 involves reductive amination of the uncharged glycine picket with an aldehyde. Route 2 involves amidation of the meso-phenylamines via addition of chloroacetyl chloride followed by the SN2 addition of amines to the resultant alkyl chloride (examples of alkyl, polyether, or benzyl amines are shown in Scheme 1). Route 2 is capable of furnishing a more diverse set of pickets, and modeling has shown that the use of the aryl amines shown in Scheme 1 would position their phenolic OH groups to allow for hydrogen bonding with the lipid's fatty acid ester groups. At the present time, porphyrins 3f-h have been furnished using Route 2. Route 3 involves the transformation of the meso-phenylamines into phenylisocyanates, followed by the addition of a substituted hydrazine (prepared from an aldehyde and hydrazine to form the hydrazone followed by reductive amination or with commercially available hydrazines) to furnish a semicarbazide group whose nitrogen can be charged (FIG. 6). The urea portion of the semicarbazide would provide additional strong hydrogen-bonding sites for the glycerol hydroxyl groups.

E. coli strain MC4100 = assay: IPTG-induced PapD overexpression, gel electrophoresis; type: cell-based; conditions: IPTG and 5 μM
Source text: The E. coli strain MC4100 will produce the pili chaperone PapD, a periplasmic protein, when induced by IPTG. […] The left panel represents the periplasmic fraction with lanes running left to right: ladder, NR, C, R, all with no IPTG; NR+IPTG, C+IPTG, R+IPTG (negative control was porphyrin A) or in the cytosol represented in the right panel with lanes running from left to right: NR, C, R, all with no IPTG; ladder, NR+IPTG, C+IPTG, R+IPTG (negative control was porphyrin A). (NR=no liptin, C=control, R=liptin). IPTG gets into the cytoplasm most efficiently via uphil symport via the plasma membrane protein lac permease when the plasma membrane is fully polarized.

[3] = Carboxyfluorescein efflux from pure PG vesicles; type: biochemical; conditions: room temperature, after three hours
Method: Liptin/bilayer interactions were evaluated using conventional efflux measurements. These experiments make use of the self-quenching fluorescence of carboxyfluorescein. At relatively high concentrations (ca. 50 mM) the fluorescence from carboxyfluorescein is diminished by approximately 70% due to intermolecular interactions.
To perform efflux experiments vesicles were prepared by rehydrating a film of pure DPPG with a 50 mM solution of carboxyfluorescein in buffer. The solution was then extruded through a polycarbonate membrane with 200 nm pore size. […] Under these conditions, as the dye leaves the vesicles by efflux, fluorescence intensity increases. Monitoring the fluorescence intensity over time provides a measure of the rate at which dye crosses the membrane and an indication of the “leakiness” of the vesicle bilayer. Efflux can be expressed as % Efflux by the following expression:
[formula] where F0 is the fluorescence intensity corresponding to the initial sample when efflux first begins and F∞ is the intensity after efflux is complete and is determined by rupturing the vesicles by the addition of a small amount of concentrated detergent. F(t) is the fluorescence intensity measured as the efflux occurs. […]

[4] = system: HepG2 human hepatocyte cells; assay: Hepatocyte toxicity, MTT assay; type: cell-based; conditions: 9-12 hours; down to 0.5 μM
Method: Toxicity of compounds to eukaryotic cells was assessed by MTT assay of cultured HepG2 human hepatocyte cells grown in media supplemented with 10% fetal bovine serum and antibiotics.
Human liver HepG2 cells were cultured in 100 mm^2 Falcon tissue culture plates in DMEM with high glucose (4500 mg/L) supplemented with 10% fetal bovine serum, 50 μg/ml streptomycin and 50 IU/ml penicillin at 37° C. and 5% CO2. Cells were cultured to about 70-80% confluence, and then seeded into 96 well plates depending and grown to 70-80% confluence for 2-3 days unless otherwise stated.
Cell viability was determined by MTT [3-(4,5-dimethylthiazol-2-yl)-2,5-diphenyltetrazolium bromide)] assay (Denizot & Lang 1986). Briefly, cells were seeded on 96-well plates and allowed to grow until 70-80% confluence. Prior to the experiment, medium was replaced with KRB containing a desired concentration of the toxin or other reagents and incubated for 9 h to 12 h depending on the experiment at 37° C. […] The resulting formazan was solubilized by the addition of 210 μL detergent solution (50% DMF, 20% SDS) followed by incubation for 4 h at 37° C. and was quantified based on the difference in the absorbance at 570 nm and 650 nm (Mosmann 1983). Results are expressed as viability of toxin treated cells with respect to control cells which were treated under the same conditions except in the absence of the toxin. […]

E. coli (MC4100) [5] = assay: Overnight growth study in LB broth; type: cell-based
Source text: This spectrum is identical to the spectrum of just liptin in water illustrating that the liptin is not degraded or metabolized when exposed to bacteria over long periods of time.

## NCC(=O)Nc1ccccc1-c1c2nc(c(-c3ccccc3NC(=O)CN)c3ccc([nH]3)c(-c3ccccc3NC(=O)CN)c3nc(c(-c4ccccc4NC(=O)CN)c4ccc1[nH]4)C=C3)C=C2.O=C(O)C(F)(F)F.O=C(O)C(F)(F)F.O=C(O)C(F)(F)F.O=C(O)C(F)(F)F [Liptin 3e]
S. aureus (33186)
  bactericidal effect: strong bactericidal effects
E. coli (MC4100) [1]
  MBC (concentration with low or no growth on LB plates): much more than four times the MIC concentrations
E. feucalis (29213)
  MBC (concentration with low or no growth on LB plates): much more than four times the MIC concentrations
[2]
  effect on bacterial growth: inhibits bacterial growth
Water solubility
  water solubility: quite water soluble
E. coli strain MC4100
  PapD in periplasmic space or cytosol: no PapD was found
[3]
  % Efflux of carboxyfluorescein: 5%
[4]
  toxicity (cell viability, MTT): lack of toxicity
E. coli (MC4100) [5]; 12 hours in bacterial culture
  stability: UV/Visible spectrum of membrane-bound liptin: no change
E. coli (MC4100) [5]; one-time addition of 10 μM, growth phase, 37° C., OD=0.2, stopped for 12 hours
  time until bacterial replication completely stops: 1 to 2 h
